# Assay results from PMC9381536, “Non-apoptotic cell death induction via sapogenin based supramolecular particles” (Scientific Reports, 2022).
# Tested on: differentially expressed genes
# Experiment: Microarray gene expression analysis (human Clariom D)
# Format: cell-based
# Description: To investigate the overall cellular response to AG-08 treatment, microarray gene expression analysis of cells treated with vehicle and AG-08 treated groups was performed. […] Next, protein–protein interaction (PPI) network analysis was evaluated by the STRING (Search Tool for the Retrieval of Interacting Genes/Proteins) network. There were 61 nodes and 145 edges in the network (PPI enrichment p-value < 1 × 10^–16). […] Then, enrichment was performed using GO and KEGG pathway analyses.
# Microarray analyses were conducted using the human Clariom D Affymetrix platform following the manufacturer’s instructions (902915, Thermo Fisher Scientific). Briefly, the total RNA was isolated using Total RNA Isolation Kit (Bio-Rad, US). Isolated total RNA was amplified, labeled, and hybridized on Clariom D Affymetrix platform. The arrays were stained by using GeneChip Fluidics Station 450. The cartridge was scanned with the GeneChip Scanner 3000 7G System (Affymetrix CA, USA).
# [1] = fold change ≥ 3.0, p-value ≤ 0.05
smiles,measurement,setting,value
Cc1ccc(S(=O)(=O)OC2CCC3(C)C4=CCC5(C)C(C6(C)CCC(C(C)(C)O)O6)C(O)CC5(C)C4C=CC3C2(C)C)cc1 (stereo not drawn) [AG-08],Gene expression level (Log2),"AC006548.19, control 6.1",4.15 Log2
same,Gene expression level (Log2),"AC068797.1, control 6.72",4.17 Log2
same,Gene expression level (Log2),"AC079949.1, control 5.75",7.8 Log2
same,Gene expression level (Log2),"ACSM3, control 6.76",4.97 Log2
same,Gene expression level (Log2),"AKAP12, control 6.27",9.04 Log2
same,Gene expression level (Log2),"AL161626.1, control 2.85",4.86 Log2
same,Gene expression level (Log2),"ATF3, control 5.19",7.04 Log2
same,Gene expression level (Log2),"CCL20, control 12.58",15.79 Log2
same,Gene expression level (Log2),"CHAC1, control 7.22",9.98 Log2
same,Gene expression level (Log2),"CREB5, control 8.35",11.14 Log2
same,Gene expression level (Log2),"CSF3, control 3.29",5.21 Log2
same,Gene expression level (Log2),"CSRNP1, control 5.26",7.09 Log2
same,Gene expression level (Log2),"CXCL2, control 8.19",10.58 Log2
same,Gene expression level (Log2),"CXCL3, control 6.99",9.67 Log2
same,Gene expression level (Log2),"CXCL8, control 9.63",12.86 Log2
same,Gene expression level (Log2),"DAW1, control 4.73",7.07 Log2
same,Gene expression level (Log2),"DDIT3, control 5.64",8.56 Log2
same,Gene expression level (Log2),"DNAJB9, control 8.13",10.33 Log2
same,Gene expression level (Log2),"DUSP1, control 10.95",12.84 Log2
same,Gene expression level (Log2),"ERO1B, control 6.9",8.83 Log2
same,Gene expression level (Log2),"ETS1, control 11.21",13.17 Log2
same,Gene expression level (Log2),"FGF5, control 4.09",6.46 Log2
same,Gene expression level (Log2),"FRMD6, control 7.12",9.43 Log2
same,Gene expression level (Log2),"GADD45A, control 11.09",13.43 Log2
same,Gene expression level (Log2),"GEM, control 4.45",6.45 Log2
same,Gene expression level (Log2),"HERPUD1, control 13.87",15.89 Log2
same,Gene expression level (Log2),"HSP90B1, control 8.38",10.67 Log2
same,Gene expression level (Log2),"HSPA1A, control 13.53",15.75 Log2
same,Gene expression level (Log2),"HSPA7, control 4.94",7.45 Log2
same,Gene expression level (Log2),"IL1A, control 10.2",12.9 Log2
same,Gene expression level (Log2),"IL1RL1, control 6.82",10.06 Log2
same,Gene expression level (Log2),"IL6, control 9.32",11.97 Log2
same,Gene expression level (Log2),"JUN, control 10.47",12.32 Log2
same,Gene expression level (Log2),"KRT5, control 11.75",9.49 Log2
same,Gene expression level (Log2),"LRRC49, control 6.77",8.59 Log2
same,Gene expression level (Log2),"MAP1B, control 7.26",9.32 Log2
same,Gene expression level (Log2),"MIR1284, control 5.93",3.95 Log2
same,Gene expression level (Log2),"MIR6515, control 4.75",6.96 Log2
same,Gene expression level (Log2),"NR4A1, control 6.63",8.84 Log2
same,Gene expression level (Log2),"PTGS2, control 9.7",11.9 Log2
same,Gene expression level (Log2),"RCAN1, control 11.4",13.43 Log2
same,Gene expression level (Log2),"RN7SKP36, control 4.9",6.69 Log2
same,Gene expression level (Log2),"RNA18S5, control 10",12.08 Log2
same,Gene expression level (Log2),"RNU11-6P, control 5.74",3.79 Log2
same,Gene expression level (Log2),"RP5-1180E21.5, control 9.91",7.94 Log2
same,Gene expression level (Log2),"RP11-74J13.9, control 5.92",3.93 Log2
same,Gene expression level (Log2),"RP11-253I19.3, control 5.74",3.7 Log2
same,Gene expression level (Log2),"RP11-632K20.8, control 8.77",6.86 Log2
same,Gene expression level (Log2),"SERPINE1, control 7.07",9.03 Log2
same,Gene expression level (Log2),"SIRPG-AS1, control 6.81",4.97 Log2
same,Gene expression level (Log2),"SPRR2A, control 6.12",8.31 Log2
same,Gene expression level (Log2),"SPRY4, control 4.5",6.6 Log2
same,Gene expression level (Log2),"TNFAIP3, control 12.92",15.77 Log2
same,Gene expression level (Log2),"TNFAIP6, control 7.73",10.32 Log2
same,Gene expression level (Log2),"TNFRSF9, control 6.22",8.07 Log2
same,Fold changes,UPR gene ATF3,3.61
same,Fold changes,UPR gene CXCL8,9.38
same,Fold changes,UPR gene DAW1,5.06
same,Fold changes,UPR gene DDIT3 (CHOP),7.57
same,Fold changes,UPR gene DNAJB9,4.59
same,Fold changes,UPR gene HERPUD1,4.06
same,Fold changes,UPR gene HSP90B1,4.89
same,Fold changes,UPR gene HYOU1,3.14
same,Gene expression level (Log2),"Y_RNA, control 2.96",4.88 Log2
same,Gene expression level (Log2),"beyly, control 5.86",3.88 Log2
same,Gene expression level (Log2),"bonawbu, control 6.42",4.47 Log2
same,Gene expression level (Log2),"borflaw, control 4.1",6.24 Log2
same,Gene expression level (Log2),"cheeju, control 7.11",4.53 Log2
same,Gene expression level (Log2),"chergy, control 8.48",6.6 Log2
same,Gene expression level (Log2),"chostarby, control 9.01",6.86 Log2
same,Gene expression level (Log2),"choygey, control 9.26",11.85 Log2
same,Gene expression level (Log2),"dymabu, control 7.28",4.94 Log2
same,Gene expression level (Log2),"ferchor, control 6.47",4.51 Log2
same,Gene expression level (Log2),"floynabo, control 3.01",5.07 Log2
same,Gene expression level (Log2),"flyleyby, control 5.79",3.87 Log2
same,Gene expression level (Log2),"flyspabu, control 6.68",4.45 Log2
same,number of genes downregulated,[1],115
same,number of genes significantly affected,[1],193
same,number of genes upregulated,[1],78
same,Gene expression level (Log2),"glupuby, control 8.3",6.47 Log2
same,Gene expression level (Log2),"guzobu, control 4.94",3.12 Log2
same,Gene expression level (Log2),"hunimo, control 2.97",4.9 Log2
same,Gene expression level (Log2),"jawrubu, control 6.99",4.94 Log2
same,Gene expression level (Log2),"keyfybu, control 6.35",4.42 Log2
same,Gene expression level (Log2),"klobly, control 8.49",6.7 Log2
same,Gene expression level (Log2),"kluky, control 6.37",4.18 Log2
same,Gene expression level (Log2),"leeklerbu, control 4.21",2.34 Log2
same,Gene expression level (Log2),"mazybu, control 5.07",3.22 Log2
same,Gene expression level (Log2),"muneme, control 5.09",3.26 Log2
same,Gene expression level (Log2),"myklar, control 6.22",4.37 Log2
same,Gene expression level (Log2),"plergler, control 8.38",5.85 Log2
same,Gene expression level (Log2),"rersharbu, control 8.82",6.82 Log2
same,Gene expression level (Log2),"runara, control 7",4.96 Log2
same,Gene expression level (Log2),"skaskoyby, control 8.54",6.69 Log2
same,Gene expression level (Log2),"skeymeybo, control 4.08",5.88 Log2
same,Gene expression level (Log2),"skoytoyby, control 3.86",5.73 Log2
same,Gene expression level (Log2),"slorfley, control 5.24",3.4 Log2
same,Gene expression level (Log2),"slukeebu, control 7.87",5.7 Log2
same,Gene expression level (Log2),"snawperbu, control 10.99",8.51 Log2
same,Gene expression level (Log2),"sneykleebu, control 7.89",5.94 Log2
same,Gene expression level (Log2),"spaforby, control 10.31",8.45 Log2
same,Gene expression level (Log2),"sparsloy, control 9.51",7.2 Log2
same,Gene expression level (Log2),"spernawbo, control 7.18",5.32 Log2
same,Gene expression level (Log2),"sportobo, control 11.14",9.07 Log2
same,Gene expression level (Log2),"steybleebu, control 9.69",7.5 Log2
same,Gene expression level (Log2),"swawchu, control 12.82",10.51 Log2
same,Gene expression level (Log2),"sworkaby, control 2.37",4.69 Log2
same,Gene expression level (Log2),"swyjee, control 7.88",6.02 Log2
same,Gene expression level (Log2),"teesnarby, control 5.92",4.07 Log2
same,Gene expression level (Log2),"vybu, control 2.47",4.27 Log2
same,Gene expression level (Log2),"vyglabu, control 2.86",4.99 Log2
